Data set [1] in a line: Pharmacokinetic behavior in mice (plasma concentration by LC-MS/MS). Format: in vivo. The settings on record: male ICR mice. Here is the method: Three healthy ICR mice (SPF grade, from Beijing Vital River Laboratory Animal Technology Co., Ltd.), male, weighing 18-25 g, were intravenously injected with a compound (1 mg/kg) at a volume of 5 mL/kg. The compound was prepared using 5% DMSO+10% Solutol+85% Saline (w/v), and the animals were not fasted before the experiment.
Three healthy ICR mice (SPF grade, from Beijing Vital River Laboratory Animal Technology Co., Ltd.), male, weighing 18-25 g, were intragastrically administered a compound (5 mg/kg) at a volume of 10 mL/kg. The compound was prepared using 5% DMSO+10% Solutol+85% Saline (w/v), and the animals were not fasted before the experiment.
Blood samples (about 0.05 mL each) were collected from the cheeks at 5 min, 15 min, 30 min, 1 h, 2 h, 4 h, 6 h, 8 h, and 24 h after intravenous administration, and at 5 min, 15 min, 30 min, 1 h, 2 h, 4 h, 6 h, 8 h, and 24 h after intragastrical administration, and anticoagulated with heparin sodium. Following collection, the blood samples were placed on ice and the plasma was centrifuged within 1 h (centrifugation conditions: 6,000 g, 3 min, 2 °C to 8°C). The concentration of the compounds in the plasma was determined by liquid chromatography tandem mass spectrometry. The plasma samples were stored in a -80°C freezer before analysis. With plasma concentration data at different time points, pharmacokinetic parameters were calculated by Phoenix WinNonlin8.2.0, and the results are shown in Table 4: Table 4

In data set [2] the target is T1, IRAK4-HiBiT fusion protein (Homo sapiens, UniProt Q9NWZ3).
T1 construct: K562 from ATCC
T1 sequence (Q9NWZ3 1-460): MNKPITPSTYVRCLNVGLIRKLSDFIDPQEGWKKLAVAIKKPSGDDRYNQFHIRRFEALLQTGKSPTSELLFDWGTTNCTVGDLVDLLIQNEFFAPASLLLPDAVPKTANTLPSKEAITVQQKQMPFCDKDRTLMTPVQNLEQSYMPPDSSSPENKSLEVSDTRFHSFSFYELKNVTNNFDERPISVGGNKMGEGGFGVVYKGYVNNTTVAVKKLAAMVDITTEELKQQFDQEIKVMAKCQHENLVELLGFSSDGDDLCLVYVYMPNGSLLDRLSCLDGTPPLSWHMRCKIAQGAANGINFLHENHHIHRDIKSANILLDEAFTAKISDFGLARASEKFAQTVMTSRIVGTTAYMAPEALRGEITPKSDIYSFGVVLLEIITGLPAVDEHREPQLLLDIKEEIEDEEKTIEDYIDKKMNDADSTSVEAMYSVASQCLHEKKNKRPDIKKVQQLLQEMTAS
Description: Detection of HiBiT-IRAK4 proteolysis levels in K562 IRAK4-HiBiT cells (Nano-Glo HiBiT Lytic assay). Format: cell-based. Here is the method: Test Example 1 Detection of HiBiT-IRAK4 proteolysis levels in K562 IRAK4-HiBiT cells co-incubated with compounds of the present application • Reagents, devices, and consumables in experiments: • Nano-Glo Lytic Detection Assay, purchased from Promega; • EnVision, purchased from PerkinElmer; • Name of cell line: K562 IRAK4-HiBiT stable transformation cell strain (capable of stably expressing IRAK4-HiBiT fusion protein), constructed by Shanghai Bioduro Biologics Co., Ltd., where a K562 cell strain was purchased from ATCC. The culture medium is IMDM+10% FBS+1% P/S (volume percentage, where FBS is fetal bovine serum and P/S is Penicillin-Streptomycin, a 1:1 mixture of penicillin and streptomycin antibiotic solution (10,000 units/mL)).
Cell culture: K562 IRAK4-HiBiT cells were incubated at 37°C, and passaged every 2-3 d, with a seeding density of 200,000 cells/mL.
IRAK4-HiBiT proteolysis experiment: • Step 1: Cell seeding and treatment of compound • 1. A 10 mM compound mother liquor was prepared using DMSO, and a compound solution with a working concentration of 1,000 times (the highest working concentration is 10 µM, diluted 3.162 times, with a total of 10 concentration gradients) was prepared using Bravo automatic liquid processing platform. • 2. 40 nL of a compound working solution was transferred to a 384 well plate, and an equal volume of DMSO was added to positive control wells. • 3. 20 µL of a culture solution was added per well and shaken for 10 min. • 4.20 µL of a K562 IRAK4-HiBiT cell suspension was added per well (6,000 cells/well), and an equal volume of culture medium was added to negative control wells. • 5. The well plate was rotated at 1,000 rpm for 1 min. • 6. The cells were incubated in a 5% CO2 incubator at 37°C for 2 h or 6 h. • Step 2: HiBiT Lytic experiment • 1. The well plate was placed at room temperature to equilibrate for 30 min. • 2. 20 µL of Nano-Glo HiBiT Lytic reagent (trade name: Nano-Glo® HiBiT Lytic Detection Reagent) and the well plate was kept in the dark. • 3. The well plate was placed on an orbital shaker at 300 rpm for 5 min. • 4. The cells were incubated at room temperature for 10 min. • 5. The luminous value was read by Envision. • 6. Data was calculated and processed. Degradation degree%=(negative control - experimental well)/(negative control - positive control) * 100%. Using XL-fit software, a degradation curve was obtained by fitting using a 4 Parameter Logistic Model, and the values of Relative DC50 (nM) and Absolute DC50 (nM) were obtained.
On the technique in general: The HiBiT peptide binds its large partner to form an active luciferase.

Setting [3] is: Intragastric administration (5 mg/kg), 5 mg/kg.
Setting [4] is: Intravenous injection (1 mg/kg), 1 mg/kg.
Setting [5] is: 6 h incubation, read-out: Absolute DC50.
[6] abbreviates: 6 h incubation, read-out: Relative DC50.
[7] abbreviates: 2 h incubation, read-out: Absolute DC50.
The mark [8] stands for this setting: 2 h incubation, read-out: Relative DC50.

Like-named read-outs stand apart in the source and are kept apart here.

For orientation: Cmax means the peak of the concentration-time curve. The term Vss denotes the apparent volume that relates the amount in the body to the concentration in plasma or blood. Lower therefore signals little distribution into tissue. For `CC(C)(O)c1cc2nn([C@H]3CC[C@H](CCN4CCN5c6ccc(C7(C)CCC(=O)NC7=O)cc6OC[C@H]5C4)CC3)cc2cc1NC(=O)c1cccc(C(F)(F)F)n1` (single isomer, unassigned) [Compound 120-b-1], in data set [1] (setting [3]), the AUClast is 16903 ng·h/mL, the maximum concentration (Cmax) was determined as 1457 ng/mL, the F% worked out at 44.5% and the T1/2 was 5.32 h. Moreover, in data set [1] (setting [4]), the AUClast amounted to 7249 ng·h/mL, the CL was 2.10 mL/min/kg, the Cmax came out at 888 ng/mL and the Vss worked out at 1.19 L/kg.
In data set [2] (6 h incubation), `CC(C)(O)c1cc2nn([C@H]3CC[C@H](CCN4CCN5c6ncc(C7CCC(=O)NC7=O)cc6OCC5C4)CC3)cc2cc1NC(=O)c1cccc(C(F)(F)F)n1` (some centres unmarked) [Compound 2] showed a Dmax of 96%. For the same molecule, the DC50 in data set [2] (setting [5]) is 6.32 nM; in data set [2] (setting [6]) it was 5.43 nM.
`COc1cc2nn([C@H]3CC[C@H](CCN4CCN5c6ccc(C7CCC(=O)NC7=O)cc6OCC5C4)CC3)cc2cc1C(=O)Nc1cccc(C(F)(F)F)n1` (some centres unmarked) [Compound 95] came in with a Dmax in data set [2] (6 h incubation) of 97%. Moreover, the DC50 was 3.87 nM in data set [2] (setting [5]) and 4.83 nM in data set [2] (setting [6]).
In data set [2] (6 h incubation), `COc1cc2nn(C3CCN(CCN4CCC5(CC4)OCc4cc(C6CCC(=O)NC6=O)ccc45)CC3)cc2cc1NC(=O)c1cccc(C(F)(F)F)n1` (centres unmarked) [Compound 97] yielded a Dmax of 93%. Moreover, the DC50 in data set [2] (setting [5]) was 1.64 nM; in data set [2] (setting [6]), 1.6 nM.
Taken in the same sequence, the figures for `COc1cc2nn(C3CCN(CCN4CCN5c6ccc(C7CCC(=O)NC7=O)cc6OCC5C4)CC3)cc2cc1NC(=O)c1cccc(C(F)(F)F)n1` (centres unmarked) [Compound 98] were 89%, < 1 nM and 0.2 nM.
For the molecule `CC(C)(O)c1cc2nn(C3CCN(CCN4CCN5c6ccc(C7CCC(=O)NC7=O)cc6OCC5C4)CC3)cc2cc1NC(=O)c1cccc(C(F)(F)F)n1` (centres unmarked) [Compound 99], the Dmax in data set [2] (2 h incubation) turned out to be 66%. The DC50 in data set [2] (setting [7]) came out at 40.3 nM; in data set [2] (setting [8]), 13.5 nM.
In turn, `[2H]C1(c2ccc3c(c2)OCC2CN(CCC4CCC(n5cc6cc(NC(=O)c7cccc(C(F)(F)F)n7)c(C(C)(C)O)cc6n5)CC4)CCN32)CCC(=O)NC1=O` (centres unmarked) [Compound 101] registered a Dmax in data set [2] (2 h incubation) of 87%. Moreover, the figures for the DC50 in data set [2] (setting [7]) and in data set [2] (setting [8]) were 7.2 nM and 4.28 nM, respectively.
As for `CC(C)(O)c1cc2nn([C@H]3CC[C@H](CN4CCC5(CC4)OCc4cc(C6CCC(=O)NC6=O)ccc45)CC3)cc2cc1NC(=O)c1cccc(C(F)(F)F)n1` (some centres unmarked) [Compound 114], the Dmax in data set [2] (6 h incubation) was 85%. Besides, the DC50 was found to be 4.85 nM in data set [2] (setting [5]) and 3.99 nM in data set [2] (setting [6]).
Taken in the same sequence, the figures for `CC(C)(O)c1cc2nn([C@H]3CC[C@H](CCN4CC5(CCN6c7ccc(C8CCC(=O)NC8=O)cc7NC6C5)C4)CC3)cc2cc1NC(=O)c1cccc(C(F)(F)F)n1` (some centres unmarked) [Compound 115] were 77%, 146 nM and 81.4 nM.
Taken in the same sequence, the figures for `CC(C)(O)c1cc2nn([C@H]3CC[C@H](CCN4CCN5c6ncc(N7CCC(=O)NC7=O)cc6OCC5C4)CC3)cc2cc1NC(=O)c1cccc(C(F)(F)F)n1` (some centres unmarked) [Compound 116] were 83%, 8.37 nM and 4.48 nM.
In the same order, the values of `CC(C)(O)c1cc2nn([C@H]3CC[C@H](CCN4CCN5c6ccc(N7CCC(=O)NC7=O)cc6OCC5C4)CC3)cc2cc1NC(=O)c1cccc(C(F)(F)F)n1` (some centres unmarked) [Compound 117] are 89%, 11.7 nM and 10.3 nM.
Consider `CC(C)(O)c1cc2nn([C@H]3CC[C@H](CCN4CCN5c6ccc(N7CCC(=O)NC7=O)cc6CCC5C4)CC3)cc2cc1NC(=O)c1cccc(C(F)(F)F)n1` (some centres unmarked) [Compound 118], for which the Dmax in data set [2] (2 h incubation) was found to be 61%. Further, the results for the DC50 in data set [2] (setting [7]) and in data set [2] (setting [8]) were 4.62 nM and 0.96 nM, respectively.
In data set [2] (2 h incubation), `CC(C)(O)c1cc2nn([C@H]3CC[C@H](CCN4CCN5c6ccc(C7CCC(=O)NC7=O)cc6CCC5C4)CC3)cc2cc1NC(=O)c1cccc(C(F)(F)F)n1` (some centres unmarked) [Compound 119] had a Dmax of 93%. Also, the DC50 in data set [2] (setting [7]) was 1.11 nM; in data set [2] (setting [8]) it was 1.02 nM.
In data set [2] (2 h incubation), `CC(C)(O)c1cc2nn([C@H]3CC[C@H](CCN4CCN5c6ccc(C7(C)CCC(=O)NC7=O)cc6OCC5C4)CC3)cc2cc1NC(=O)c1cccc(C(F)(F)F)n1` (some centres unmarked) [Compound 120] had a Dmax of 90%. In addition, the figures for the DC50 in data set [2] (setting [7]) and in data set [2] (setting [8]) were 39 nM and 27.8 nM, respectively.
Take `CC(C)(O)c1cc2nn([C@H]3CC[C@H](CCN4CCN5c6ccc(C7(C)CCC(=O)NC7=O)cc6OCC5C4)CC3)cc2cc1NC(=O)c1ccc2cc(C#N)cnn12` (some centres unmarked) [Compound 126]: the Dmax in data set [2] (6 h incubation) is 97%. The DC50 in data set [2] (setting [5]) is 10.8 nM; in data set [2] (setting [6]) it was 12.3 nM.
Taken in the same sequence, the figures for `CC(C)(O)c1cc2nn([C@H]3CC[C@H](CCN4CCN5c6ccc(C7CCC(=O)NC7=O)cc6OCC5C4)CC3)cc2cc1NC(=O)c1ccc2cc(C#N)cnn12` (some centres unmarked) [Compound 129] were 97%, 4.41 nM and 4.32 nM.
In the same order, the values of `CC(C)(O)c1cc2nn([C@H]3CC[C@H](CCN4CCN5c6ccc(C7CCC(=O)NC7=O)cc6OCCC5C4)CC3)cc2cc1NC(=O)c1cccc(C(F)(F)F)n1` (some centres unmarked) [Compound 130] are 97%, 8.13 nM and 8.51 nM.

(Values after EP4696691A1, “TRICYCLIC COMPOUND, AND PREPARATION METHOD THEREFOR AND USE THEREOF” (Shanghai Huilun Pharmaceutical Co., Ltd., priority 2023, dated 2024).)
